Results reported in patent US7557092B2, “Purinergic modulation of smell” (University of Utah Research Foundation, priority 2002, dated 2009).

Legend:
[1] = tested on: sustentacular cells in mouse olfactory epithelium slices; test: confocal calcium imaging of fluo-4 AM loaded olfactory epithelium slices, sustentacular cells; type: cell-based; conditions: 10 μM agonist superfused onto slice
Text: To study the effects of ATP on odor responses, acutely prepared slices of mouse olfactory epithelium were used. Confocal imaging of fluo-4 AM-loaded olfactory epithelium slices allows simultaneous recording from identified structures within the olfactory epithelium, i.e., both ORNs and sustentacular cells. […] The difference in robustness can be due to poor access to the ATP stimulus: odorant receptors are on the cilia of the ORNs, which extend beyond the outer edge of the olfactory epithelium, whereas purinergic receptors are located deeper within the olfactory epithelium. […] The latency of activation for the ATP-evoked calcium transient was shorter in the ORN (FIG. 3B2, solid up arrowhead) than in sustentacular cells (FIG. 3B3, open down arrowhead). Collectively, this was consistent with ORNs expressing the faster P2X receptors, and the sustentacular cells expressing the slower G-protein coupled P2Y receptors.
To prepare olfactory epithelium slices, neonatal mice (postnatal day 0-6) were quickly decapitated, and the skin and lower jaw were removed. Tissue was mounted in ice cold Ringers onto a vibratome-cutting block and 300 μm slices were made. Primary cultures of mouse ORNs were made using the same protocol and culture conditions as described for rat olfactory receptor neurons (Vargas and Lucero, 1999a). Briefly, tissue was placed in divalent cation-free Ringers containing 10 mg/ml bovine serum albumin, 1 mg/ml deoxyribonuclease II and 44 U/ml dispase, incubated at 37° C. for 45 min. The tissue was washed, triturated, and filtered through a […] mesh and […] cells were plated onto concanavalin A-coated coverslips and allowed to settle for 20 min. An additional 1.5 ml of culture medium was added (DMEM supplemented with […] ascorbic acid, 1X insulin-transferrin-seleniumX (GIBCO BRL), 2 mM glutamine, 100 U/ml penicillin G and […] streptomycin).
[Ca^2+]i was determined using confocal imaging of fluo-4 AM (18 μM; Molecular Probes) loaded cells and slices. Cells or slices were placed in a laminar flow chamber (Warner Instruments) and perfused continuously with Ringers solution at a flow rate of 1.5-2.0 ml/min. Ringers contained (mM): 140 NaCl, 5 KCl, 1 MgCl2, 2 CaCl2, 10 HEPES, 10 glucose, […] and 400 nM tetrodotoxin. Test solutions were applied using bath exchange and a small volume loop injector (200 μl). A Zeiss LSM 510 confocal laser scanning system was used for data collection and analysis. Time series experiments were performed collecting 1400×700 pixel images at 0.2-0.4 Hz. The fluorometric signals obtained are expressed as relative fluorescence change, ΔF/F═(F−F0)/F0, where F0 is the basal fluorescence level. Increases in F greater than 10% above baseline noise were considered responses.

[2] = tested on: ORNs in neonatal mouse OE slices; test: on-cell current-clamp recording of cyclic nucleotide-induced electrical responses; type: cell-based; conditions: 10 μM ATP co-applied with cyclic nucleotide mixture (IBMX, CPT-cAMP, 8-Br-cGMP), n=3 cells
Experimental: Filled triangles correspond to the time of loop injection of the test solutions. […] Various test solutions were superfused onto the slice for 30 seconds, indicated by the shaded region. The cell was allowed to recover for 7 minutes after each test application. Note that the coapplication of ATP (10 μM) and the mixture suppressed the evoked membrane potential changes. […] N=3 from three slices, also indicated in each column.
Electro-olfactogram and on-cell recordings: Slices of P0-P6 mouse OE were prepared as described above and mounted in a perfusion chamber with a bath flow of […]. Test chemicals were introduced using a rotary injection valve (Rheodyne, Cotati, Calif.). The electro-olfactogram (EOG) recording electrode (3 M NaCl in 1% agar; tip diameter, 5-10 um) was positioned along the dorsal portion of the nasal septum. The differential electrode (identical to the recording electrode) was positioned over skull cartilage and an […] ground electrode was connected to the bath solution via a 3 M KCl agar bridge. […]
For the noninvasive on-cell recordings (Chiu et al., 1997), the same electronics were used as described for nystatin-patch experiments. […] The time course of solution delivery was determined by placing an electrode in a slice and switching from Ringer's solution to distilled water. […]

[3] = tested on: P2X and P2Y purinergic receptors; conditions: cited from earlier work

SMILES: Nc1ncnc2c1ncn2[C@@H]1O[C@H](COP(=O)(O)OP(=O)(O)OP(=O)(O)O)[C@@H](O)[C@H]1O [ATP, Adenosine 5′-triphosphate]
- agonist-evoked calcium transients in sustentacular cells [1]: evoked calcium transients
- reduction of the electrical activity of the ORN [2]: 67±2%
- concentrations that activate P2X and P2Y purinergic receptors [3]: 0.1 to 10 µM
